The subject of assay [1] is Salmonella Typhi WT vs phoP-, polymyxin IC50 shift, OD600 24 h. The assay can be described thus: compound effect on polymyxin resistance, Typhi, OD600 (AID 2612).
Test in assay [2]: as above
As to conditions: Salmonella Typhi WT vs phoP-, polymyxin IC50 shift, OD600 24 h, at 150 µM; for IC50 shift: measured here: polymyxin IC50 shift; for polymyxin IC50 shift difference (WT - phoP-): stronger effect = higher value.

SMILES strings stand for the structures. The source made the active and inactive calls. The rule behind the calls is not given here.

`O=C1C2=C(Nc3ccccc3SC2c2ccco2)c2ccccc21` (centres undefined): the results for the half-maximal inhibitory concentration (IC50) in assay [1], in assay [1] (WT polymyxin IC50 at 150 uM) and in assay [1] (phoP- polymyxin IC50 at 150 uM) were 4 µM, 1.47 µM and 27.4 µM, respectively. Also, the IC50 shift in assay [2] (WT strain) was 1.28; in assay [2] (phoP- strain) it was -24.4.

Take `COc1c(N2CCN(C(=S)NCc3ccccc3)C(C)C2)c(F)cc2c(=O)c(C(=O)O)cn(C3CC3)c12` (centres undefined): the results for the 50% inhibitory concentration (IC50) in assay [1] (WT polymyxin IC50 at 150 uM) and in assay [1] (phoP- polymyxin IC50 at 150 uM) were 7.25 µM and 3.83 µM, respectively. The polymyxin IC50 shift difference (WT - phoP-) in assay [2] is -3.42 (inactive). The IC50 shift is -4.5 in assay [2] (WT strain) and -1.08 in assay [2] (phoP- strain).

In the case of `CCn1cc(C(=O)O)c(=O)c2cc(F)c(N3CCN(C(=S)NC(=O)c4ccccc4Cl)CC3)cc21`, the concentration for half-maximal inhibition (IC50) (as a rule, the concentration at which inhibition is half-maximal) in assay [1] (WT polymyxin IC50 at 150 uM) was 3.45 µM; in assay [1] (phoP- polymyxin IC50 at 150 uM) it was 0.0339 µM. For the same compound, the polymyxin IC50 shift difference (WT - phoP-) in assay [2] is -3.77 (inactive). Further, the IC50 shift in assay [2] (WT strain) was -1.35; in assay [2] (phoP- strain), 2.42.

With `S=C(NCc1ccc(Cl)cc1)Nc1ccncc1`, the half-inhibitory concentration (IC50) in assay [1] was 20 µM; in assay [1] (WT polymyxin IC50 at 150 uM) it was 0.669 µM; in assay [1] (phoP- polymyxin IC50 at 150 uM), 28.8 µM. For the same compound, the IC50 shift in assay [2] (WT strain) is -0.561; in assay [2] (phoP- strain), -25.9.

As for `O=C(Nc1ccc(Cl)cc1)N1CCCN(Cc2ccccc2F)C1`, the IC50 in assay [1] (WT polymyxin IC50 at 150 uM) is 14.9 µM; in assay [1] (phoP- polymyxin IC50 at 150 uM) it was 3.07 µM. Further, the polymyxin IC50 shift difference (WT - phoP-) in assay [2] was -11.9 (inactive). Also, the figures for the IC50 shift in assay [2] (WT strain) and in assay [2] (phoP- strain) were -12.1 and -0.267, respectively.

As to `Cc1ccc(Nc2cc(C)c3c(O)cccc3n2)cc1C`, the half-maximal inhibitory concentration (IC50) in assay [1] (phoP- polymyxin IC50 at 150 uM) is 0.893 µM. In assay [2], the polymyxin IC50 shift difference (WT - phoP-) is 0.62 (inactive). Besides, the IC50 shift in assay [2] (WT strain) worked out at 2.64; in assay [2] (phoP- strain), 2.02.

The record behind these values is PubChem BioAssay AID2612 (Southern Research Specialized Biocontainment Screening …, 2010).
